Tests used:
[1] = system: Plasmodium falciparum; assay: Antiplasmodial activity against Plasmodium falciparum 3D7 trophozoites assessed as parasite growth inhibition; type: functional, organism-based
[2] = Cytotoxicity against human MRC5 cells assessed as cell growth inhibition measured after 24 hrs by MTT assay; type: toxicity, cell-based
[3] = Cytotoxicity against human MRC5 cells assessed as cell viability at 3.125 to 100 uM measured after 24 hrs by MTT assay relative to control; type: toxicity, cell-based; details: dose 3.125-100 µM, read-out: Activity

Compound	IC50 [1] [µM]	IC50 at 24 h [2] [µM]	viability at 24 h, up to 100 µM [3] [%]
CC(C)C(=O)N1C(=O)CNC1=O	> 1000	> 100	> 80
CC(C)C(=O)N1C(=O)N[C@H](c2ccccc2)C1=O	27.5	> 100	> 80
Cc1ccc(S(=O)(=O)N2C(=O)CNC2=O)cc1	0.00397	> 100	> 80
CSCC[C@H]1NC(=O)NC1=O	> 1000	> 100	> 80
O=C1CNC(=O)N1C(=O)c1cc([N+](=O)[O-])cc([N+](=O)[O-])c1	625	> 100	> 80
O=C1CNC(=O)N1C(=O)Cc1ccccc1	748	> 100	> 80
O=C1NC(=O)[C@@H](c2ccccc2)N1	> 1000	> 100	> 80
C[C@H]1NC(=O)NC1=O	916	> 100	> 80
O=C1CNC(=O)N1 [HYDANTOIN]	623	> 100	> 80
CC(=O)N1C(=O)CNC1=O	147	> 100	> 80

Reference: ChEMBL document CHEMBL5385941, “Synthesis and biological evaluation of hydantoin derivatives as potent antiplasmodial agents” (Bioorg Med Chem Lett, 2024)
